Among the data in PubChem BioAssay (NCI) are GI50 and TGI values, retold here.

Some test systems named below: RXF 393 renal; HCT-15 colon; IGROV1 ovarian; LOX IMVI melanoma; ACHN renal; SK-MEL-5 melanoma; OVCAR-4 ovarian; HCC-2998 colon; BT-549 breast; CAKI-1 renal.
What all share (assay): growth of human tumour cells (NCI), 48 h

Where “and” joins values, the source holds several entries; their conditions need not be identical. Equal values may be shown once.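 Assay format: 96-well plates, 48-hour exposure. At the GI50, growth is halved. Definition used: TGI = concentration required for complete inhibition of growth.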

`CC(C)(C#N)c1cc(F)cc(C(=O)Nc2cc(Nc3ncccc3-c3ncnc4nc[nH]c34)ccc2F)c1`: the GI50 in the test on RXF 393 renal is 2.22 µM; with HCT-15 colon it was 3.59 µM; in the test on IGROV1 ovarian, 0.684 µM; with LOX IMVI melanoma, 0.104 µM; in the test with ACHN renal, 1.85 µM; in the test on SK-MEL-5 melanoma it was 0.635 µM. Moreover, the GI50 in the test on OVCAR-4 ovarian is 4.71 µM; in the test on HCC-2998 colon it was 1.12 µM; with BT-549 breast it was 3.63 µM. In addition, the TGI in the test with RXF 393 renal is above 10 µM; in the test on HCT-15 colon, above 10 µM; with IGROV1 ovarian it was above 10 µM; in the test with LOX IMVI melanoma it was 1.8 µM; in the test on ACHN renal, above 10 µM; in the test with SK-MEL-5 melanoma it was above 10 µM. Besides, the TGI in the test with OVCAR-4 ovarian, with HCC-2998 colon and in the test with BT-549 breast was above 10 µM in each case.

Take `CC(=O)c1c(C)n(C)c2c1nnc1ccccc12`: the TGI in the test on RXF 393 renal, with HCT-15 colon, in the test on LOX IMVI melanoma, in the test with CAKI-1 renal, in the test with ACHN renal and in the test on SK-MEL-5 melanoma was above 100 µM each time. Further, the TGI in the test on OVCAR-4 ovarian, with HCC-2998 colon and in the test on BT-549 breast was above 100 µM in each case.

For the compound `CC1CCN(CCCCCOc2ccc3oc4cc(Cl)ccc4c(=O)c3c2)CC1`, the GI50 was 5.75 µM in the test with RXF 393 renal; 1.32 µM in the test on HCT-15 colon; 6.71 µM with IGROV1 ovarian; 4.18 µM in the test on LOX IMVI melanoma; 8.01 µM in the test on ACHN renal; 5.36 µM with SK-MEL-5 melanoma. The GI50 in the test on OVCAR-4 ovarian was 6.22 µM; in the test with HCC-2998 colon it was 6.25 µM; in the test on BT-549 breast, 6.54 µM. Also, the TGI with RXF 393 renal is 12.7 µM; in the test with HCT-15 colon, 4.1 µM; in the test with IGROV1 ovarian, 15.3 µM; in the test on LOX IMVI melanoma it was 10.9 µM; with ACHN renal, 14.7 µM; in the test with SK-MEL-5 melanoma, 11.3 µM. Also, the results for the TGI in the test on OVCAR-4 ovarian, with HCC-2998 colon and in the test on BT-549 breast were 13.6 µM, 13.1 µM and 13.1 µM, respectively.

As for `O=C(Nc1ccc(CN2CCOCC2)cc1)c1[nH]ncc1Nc1ncnc2sccc12`, the GI50 in the test on RXF 393 renal is 0.204 µM; in the test with HCT-15 colon, 0.277 µM; with IGROV1 ovarian, 0.578 µM; in the test with CAKI-1 renal it was 0.477 µM; in the test on SK-MEL-5 melanoma it was 0.223 µM; in the test with OVCAR-4 ovarian it was 0.6 µM. Besides, the GI50 with HCC-2998 colon is 0.68 µM; with BT-549 breast, 0.896 µM. Besides, the TGI is 0.639 µM with RXF 393 renal; 16.7 µM in the test with HCT-15 colon; 23.6 µM in the test with IGROV1 ovarian; above 100 µM in the test with CAKI-1 renal; 0.638 µM in the test with SK-MEL-5 melanoma; 6.28 µM with OVCAR-4 ovarian. The results for the TGI with HCC-2998 colon and with BT-549 breast were 5.08 µM and 5.88 µM, respectively.

On to `CCOc1cc2c(cc1O)/C(=N\O)C[C@@H]1[C@@H]2CC[C@]2(C)[C@@H](O)CC[C@@H]12`, for which the TGI was above 100 µM in the test with RXF 393 renal; above 36.8 µM with HCT-15 colon; above 100 µM in the test with IGROV1 ovarian; above 63.8 µM with LOX IMVI melanoma; above 49.5 µM in the test with ACHN renal; 1.32 µM and 10.2 µM with SK-MEL-5 melanoma. Moreover, the TGI with OVCAR-4 ovarian is above 100 µM; in the test on HCC-2998 colon, 9.51 µM and > 41.1 µM; with BT-549 breast, 22.5 µM. Moreover, the GI50 in the test with IGROV1 ovarian is 0.296 µM; in the test with LOX IMVI melanoma it was 0.00721 µM; with ACHN renal it was 0.024 µM; in the test with SK-MEL-5 melanoma it was 0.00618 µM; in the test on OVCAR-4 ovarian, 8.67 µM; in the test with HCC-2998 colon it was 1.63 µM. In addition, in the test on BT-549 breast, the GI50 was 0.0864 µM.

Take `COc1ccc2nc3cc(Cl)ccc3c(N3CCN(c4ccnc(N5CCOCC5)n4)CC3)c2c1`: the GI50 with RXF 393 renal is 2.68 µM; with HCT-15 colon it was 3.28 µM; with IGROV1 ovarian, above 100 µM; in the test on CAKI-1 renal it was above 100 µM; in the test with ACHN renal it was 9.64 µM; in the test on SK-MEL-5 melanoma, above 100 µM. The GI50 was 3.86 µM in the test on HCC-2998 colon and above 100 µM in the test on BT-549 breast. Besides, the TGI with RXF 393 renal was 16.1 µM; in the test on HCT-15 colon it was above 100 µM; in the test with IGROV1 ovarian, above 100 µM; in the test with CAKI-1 renal it was above 100 µM; with ACHN renal it was above 100 µM; with SK-MEL-5 melanoma it was above 100 µM. Moreover, the TGI is 42.4 µM in the test with HCC-2998 colon and above 100 µM with BT-549 breast.

Turning to `O=S(=O)(O)c1ccc(-c2nnc(-c3ccccn3)nc2-c2ccc(S(=O)(=O)O)o2)o1`, the TGI in the test with RXF 393 renal, in the test with HCT-15 colon, in the test on IGROV1 ovarian, in the test with LOX IMVI melanoma, in the test on CAKI-1 renal and in the test with ACHN renal was above 100 µM throughout. Also, the TGI in the test with SK-MEL-5 melanoma, in the test with OVCAR-4 ovarian and in the test on BT-549 breast was above 100 µM each time.

`Cc1cc(=O)[nH]o1`: the TGI in the test on RXF 393 renal, in the test on HCT-15 colon, with IGROV1 ovarian, in the test on LOX IMVI melanoma, in the test with CAKI-1 renal and in the test on ACHN renal was above 100 µM in each case. Also, the TGI in the test with OVCAR-4 ovarian, in the test with HCC-2998 colon and in the test with BT-549 breast was above 100 µM in each case.

`COc1cnc2c(c1)C(=O)c1c-2n(CCCN2CCC(O)CC2)c(=O)c2cc(F)ccc12`: the GI50 with RXF 393 renal was 0.217 µM; in the test with IGROV1 ovarian, 0.301 µM; in the test on LOX IMVI melanoma, 0.127 µM; in the test on ACHN renal, 0.0902 µM; in the test on SK-MEL-5 melanoma, 0.201 µM; in the test with HCC-2998 colon, 1.23 µM. For the same compound, the GI50 with BT-549 breast is 0.697 µM. The TGI in the test with RXF 393 renal is 0.838 µM; in the test with IGROV1 ovarian, 2.24 µM; with LOX IMVI melanoma, 0.295 µM; in the test on ACHN renal, 0.332 µM; with SK-MEL-5 melanoma, 0.628 µM; with HCC-2998 colon it was 9.98 µM. In the test with BT-549 breast, this compound yielded a TGI of 14.4 µM.

Consider `C/C1=C/C2=CC(C)C[C@@H]2C(=O)[C@]2(C)C(=O)CC(C)(C)[C@H]2CC1=O` (some centres undefined), for which the TGI with HCT-15 colon, in the test on IGROV1 ovarian, in the test with LOX IMVI melanoma, in the test with CAKI-1 renal, with ACHN renal and with SK-MEL-5 melanoma was above 50 µM throughout. Moreover, the TGI in the test on OVCAR-4 ovarian, in the test on HCC-2998 colon and in the test with BT-549 breast was above 50 µM each time.
